Assay results reported in patent publication US9133115B2 (ACHILLION PHARMACEUTICALS, INC., priority 2008, dated 2015).

These compounds were tested on HCV replicon (assay: HCV replicon replication assay (NPT ELISA) in Huh-7 replicon-containing cells). Conditions: Hepatitis C virus, 72 h; HCV replicon in Huh-7 cells, three days incubation; read-out: EC50.
Type: cell-based
In short: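 Replication was scored by capture ELISA of neomycin phosphotransferase, whose level tracks replicon replication, after graded compound treatment. The cells were Huh-7 harbouring an HCV-IRES/neo/EMCV-IRES/NS3–NS5B/3′-NTR replicon, plated at 6000-7500 cells/well and dosed 24 h later at 60-70% confluence; interferon alpha was the positive control.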

Compound | EC50
C=C[C@@H]1C[C@]1(NC(=O)[C@@H]1C[C@@H](NC(=O)c2cc(-c3ccccc3)nc3ccccc23)CN1C(=O)[C@@H](CC(=O)N1CCC(F)(F)CC1)C(C)(C)C)C(=O)NS(=O)(=O)C1CC1 [Compound 200, N-((3R,5S)-1-((S)-2-tert-butyl-4-(4,4-difluoropiperidin-1-yl)-4-oxobutanoyl)-5-((1R,2S)-1-(cyclopropylsulfonyl-carbamoyl)-2-vinylcyclopropyl-carbamoyl)pyrrolidin-3-yl)-2-phenylquinoline-4-carboxamide] | < 1000 nM
C=C[C@@H]1C[C@]1(NC(=O)[C@@H]1C[C@@H](Oc2cc(-c3ccccc3)nc3cc(OC)ccc23)CN1C(=O)[C@@H](CC(=O)N1CCC1c1cccc(OC)c1)C(C)(C)C)C(=O)NS(=O)(=O)C1CC1 (stereo partly drawn) [Compound 228, (2S,4R)-1-((2S)-2-tert-butyl-4-(2-(3-methoxyphenyl)aze-tidin-1-yl)-4-oxobutanoyl)-N-((1R)-1-(cyclopropyl-sulfonylcarbamoyl)-2-vinylcyclopropyl)-4-(7-methoxy-2-phenylquinolin-4-yloxy)pyrrolidine-2-carboxamide] | < 1000 nM
C=C[C@@H]1C[C@]1(NC(=O)[C@@H]1C[C@@H](Oc2cc(-c3ccccc3)nc3cc(OC)ccc23)CN1C(=O)[C@@H](CC(=O)N1CC2CC3CC(C2)CC1C3)C(C)(C)C)C(=O)NS(=O)(=O)C1CC1 [Compound 81] | < 1000 nM
C=C[C@@H]1C[C@]1(NC(=O)[C@@H]1C[C@@H](Oc2cc(-c3ccccn3)nc3c(Cl)c(OC)ccc23)CN1C(=O)[C@@H](CC(=O)N1CCCC(F)(F)C1)C(C)(C)C)C(=O)NS(=O)(=O)C1CC1 [Compound 181, (2S,4R)-1-((S)-2-tert-butyl-4-(3,3-difluoropiperidin-1-yl)-4-oxobutanoyl)-4-(8-chloro-7-methoxy-2-(pyridin-2-yl)quinolin-4-yloxy)-N-((1R,2S)-1-(cyclopropyl-sulfonylcarbamoyl)-2-vinyl-cyclopropyl)pyr-rolidine-2-carboxamide] | < 1000 nM
C=C[C@@H]1C[C@]1(NC(=O)[C@@H]1C[C@@H](Oc2cc(-c3ccccc3)nc3cc(OC)ccc23)CN1C(=O)[C@@H](CC(=O)N1CCCC1)C(C)(C)C)C(=O)NS(=O)(=O)C1CC1 [Compound 87, (2S,4R)-1-((S)-2-tert-butyl-4-oxo-4-(pyrrolidin-1-yl)butanoyl)-N-((1R,2S)-1-(cyclo-propylsulfonyl-carbamoyl)-2-vinylcyclopropyl)-4-(7-methoxy-2-phenylquinolin-4-yloxy)pyrrolidine-2-carboxamide] | < 1000 nM
C=C[C@@H]1C[C@]1(NC(=O)[C@@H]1C[C@@H](Oc2cc(-c3ccccc3)nc3cc(OC)ccc23)CN1C(=O)[C@@H](CC(=O)N1CCCCC1)C(C)(C)C)C(=O)NS(=O)(=O)CCC [Compound 136, (2S,4R)-1-((S)-2-tert-butyl-4-oxo-4-(piperidin-1-yl)butanoyl)-4-(7-methoxy-2-phenylquinolin-4-yloxy)-N-((1R,2S)-1-(propylsulfonyl-carbamoyl)-2-vinyl-cyclopropyl)pyr-rolidine-2-carboxamide] | < 1000 nM
C=C[C@@H]1C[C@]1(NC(=O)[C@@H]1C[C@@H](Oc2cc(-c3ccccc3)nc3cc(OC)ccc23)CN1C(=O)[C@@H](CC(=O)N1CCCC(F)C1)C(C)(C)C)C(=O)NS(=O)(=O)C1CC1 (stereo partly drawn) [Compound 83, (2S,4R)-1-((2S)-2-tert-butyl-4-(3-fluoropiperidin-1-yl)-4-oxobutanoyl)-N-((1R,2S)-1-(cyclopropyl-sulfonylcarbamoyl)-2-vinylcyclopropyl)-4-(7-methoxy-2-phenylquinolin-4-yloxy)pyrrolidine-2-carboxamide] | < 1000 nM
C=C[C@@H]1C[C@]1(NC(=O)[C@@H]1C[C@@H](Oc2cc(-c3ccccc3)nc3cc(OC)ccc23)CN1C(=O)[C@H](CC(=O)N1CCCCC1)C(C)(C)C)C(=O)NS(=O)(=O)C1CC1 [Compound 134, (2S,4R)-1-((R)-2-tert-butyl-4-oxo-4-(piperidin-1-yl)butanoyl)-N-((1R,2S)-1-(cyclo-propylsulfonyl-carbamoyl)-2-vinylcyclopropyl)-4-(7-methoxy-2-phenylquinolin-4-yloxy)pyrrolidine-2-carboxamide] | 1000 to 10000 nM
C=C[C@@H]1C[C@]1(NC(=O)[C@@H]1C[C@@H](Oc2cc(-c3ccccc3)nc3cc(OC)ccc23)CN1C(=O)[C@@H](CC(=O)N1CCCCC1)C1CC1)C(=O)NS(=O)(=O)C1CC1 [Compound 121, (2S,4R)-1-((S)-2-cyclopropyl-4-oxo-4-(piperidin-1-yl)butanoyl)-N-((1R,2S)-1-(cyclopropylsulfonyl-carbamoyl)-2-vinylcyclopropyl)-4-(7-methoxy-2-phenylquinolin-4-yloxy)pyrrolidine-2-carboxamide] | < 1000 nM
C=C[C@@H]1C[C@]1(NC(=O)[C@@H]1C[C@@H](Oc2cc(-c3ccccc3)nc3cc(OC)ccc23)CN1C(=O)[C@@H](CC(=O)N1CCCCC1)CC(C)(C)C)C(=O)NS(=O)(=O)C1CC1 [Compound 104, (2S,4R)-N-((1R,2S)-1-(cyclopropyl-sulfonylcarbamoyl)-2-vinylcyclopropyl)-1-((R)-4,4-dimethyl-2-(2-oxo-2-(piperidin-1-yl)ethyl)pentanoyl)-4-(7-methoxy-2-phenylquinolin-4-yloxy)pyrrolidine-2-carboxamide] | < 1000 nM
C=C[C@@H]1C[C@]1(NC(=O)[C@@H]1C[C@@H](Oc2nccc3cc(OC)ccc23)CN1C(=O)[C@@H](CC(=O)N1CCCCC1)C(C)(C)C)C(=O)NS(=O)(=O)C1CC1 [Compound 101, (2S,4R)-1-((S)-2-tert-butyl-4-oxo-4-(piperidin-1-yl)butanoyl)-N-((1R,2S)-1-(cyclo-propylsulfonyl-carbamoyl)-2-vinylcyclopropyl)-4-(6-methoxyisoquinolin-1-yloxy)pyrrolidine-2-carboxamide] | < 1000 nM
C=C[C@@H]1C[C@]1(NC(=O)[C@@H]1C[C@@H](Oc2cc(-c3ccccc3)nc3ccc(C)cc23)CN1C(=O)[C@@H](CC(=O)N1CCCCC1)C(C)(C)C)C(=O)NS(=O)(=O)C1CC1 [Compound 226, (2S,4R)-1-((S)-2-tert-butyl-4-oxo-4-(piperidin-1-yl)butanoyl)-N-((1R)-1-(cyclopropyl-sulfonylcarbamoyl)-2-vinylcyclopropyl)-4-(6-methyl-2-phenylquinolin-4-yloxy)pyrrolidine-2-carboxamide] | < 1000 nM
C=C[C@@H]1C[C@]1(NC(=O)[C@@H]1C[C@@H](NC(=O)n2c3ccccc3c3ccccc32)CN1C(=O)[C@@H](CC(=O)N1CC2CC3CC(C2)CC1C3)C(C)(C)C)C(=O)NS(=O)(=O)C1CC1 [Compound 197] | < 1000 nM
C=C[C@@H]1C[C@]1(NC(=O)[C@@H]1C[C@@H](Oc2cc(-c3ccccc3)nc3cc(OC)ccc23)CN1C(=O)[C@@H](CC(=O)N1CCCCC1)C(C)(C)C)C(=O)NS(=O)(=O)C(F)(F)F [Compound 66, (2S,4R)-1-((S)-2-tert-butyl-4-oxo-4-(piperidin-1-yl)butanoyl)-4-(7-methoxy-2-phenylquinolin-4-yloxy)-N-((1R,2S)-1-(trifluoromethyl-sulfonylcarbamoyl)-2-vinylcyclo-propyl)pyrrolidine-2-carboxamide] | 1000 to 10000 nM
COc1ccc2c(O[C@@H]3C[C@@H](C(=O)N[C@@H](C)C(=O)NS(=O)(=O)C4CC4)N(C(=O)[C@@H](CC(=O)N4CCCCC4)C(C)(C)C)C3)cc(-c3ccccc3)nc2c1 [Compound 114, (2S,4R)-1-((S)-2-tert-butyl-4-oxo-4-(piperidin-1-yl)butanoyl)-N-((S)-1-(cyclopropanesulfon-amido)-1-oxopropan-2-yl)-4-(7-methoxy-2-phenylquinolin-4-yloxy)pyrrolidine-2-carboxamide] | 1000 to 10000 nM
C=C[C@@H]1C[C@]1(NC(=O)[C@@H]1C[C@@H](NC(=O)c2cc(-c3ccccc3)nc3ccccc23)CN1C(=O)[C@@H](CC(=O)N1CCC(F)CC1)C(C)(C)C)C(=O)NS(=O)(=O)C1CC1 [Compound 205, N-((3R,5S)-1-((S)-2-tert-butyl-4-(4-fluoropiperidin-1-yl)-4-oxobutanoyl)-5-((1R,2S)-1-(cyclopropylsulfonyl-carbamoyl)-2-vinyl-cyclopropyl-carbamoyl)pyrrolidin-3-yl)-2-phenylquinoline-4-carboxamide] | < 1000 nM
C=C[C@@H]1C[C@]1(NC(=O)[C@@H]1C[C@@H](Oc2cc(-c3ccccn3)nc3cc(OC)ccc23)CN1C(=O)[C@@H](CC(=O)N1CCCC(F)(F)C1)C(C)(C)C)C(=O)NS(=O)(=O)C1CC1 [Compound 217, (2S,4R)-1-((S)-2-tert-butyl-4-(3,3-difluoropiperidin-1-yl)-4-oxobutanoyl)-N-((1R)-1-(cyclopropyl-sulfonylcarbamoyl)-2-vinylcyclopropyl)-4-(7-methoxy-2-(pyridin-2-yl)quinolin-4-yloxy)pyrrolidine-2-carboxamide] | < 1000 nM
C=C[C@@H]1C[C@]1(NC(=O)[C@@H]1C[C@@H](Oc2cc(-c3ccccn3)nc3c(Cl)c(OC)ccc23)CN1C(=O)[C@@H](CC(=O)N1CCCC(F)C1)C(C)(C)C)C(=O)NS(=O)(=O)C1CC1 (stereo partly shown) [Compound 209] | < 1000 nM
C=C[C@@H]1C[C@]1(NC(=O)[C@@H]1C[C@@H](Oc2cc(-c3ccccc3)nc3cc(OC)ccc23)CN1C(=O)[C@@H](CC(=O)N1C[C@@H]2C[C@H]1CN2C(=O)OC(C)(C)C)C(C)(C)C)C(=O)NS(=O)(=O)C1CC1 [Compound 172, (1S,4S)-tert-butyl 5-((S)-3-((2S,4R)-2-((1R,2S)-1-(cyclopropyl-sulfonylcarbamoyl)-2-vinylcyclopropyl-carbamoyl)-4-(7-methoxy-2-phenylquinolin-4-yloxy)pyrrolidine-1-carbonyl)-4,4-dimethylpentanoyl)-2,5-diazabi-cyclo[2.2.1]heptane-2-carboxylate] | < 1000 nM
